Legend:
peritoneal macrophages = assay: Action on macrophage-phagocytosis; format: cell-based; settings: Rattus norvegicus, read-out: potentiating action on macrophage phagocytosis, relative ratio of phagocytic macrophages
Experimental: (§1) ICR mice weighing 30-35 g were intraperitoneally administered with glycogen. Three hours later, the leukocytes in the abdominal cavity were collected. A leukocyte suspension of 5×10^6 cells/ml was prepared and the test compound was added to 200 μl of the cell suspension, followed by further addition of 100 μl of mouse serum and 100 μl of dead yeast (1×10^8 particles/ml) thereto. The mixture was incubated at 37° C. for 20 minutes. By observing more than 200 leukocytes in the reaction mixture under a microscope (400 magnifications), the number of the leukocytes which had phagocytosed at least one dead yeast was counted. The ratio of the number of phagocytic leukocytes treated with 0.1 μM of the test compounds relative to that of phagocytic leukocytes of controls was estimated. The potentiating actions on phagocytosis of the compounds of Examples 1 and 9 were 160% and 158% respectively.
Casein sodium was intraperitoneally administered to rats. Three to four days later, peritoneal macrophages were collected. The phagocytosis was examined, and the relative ratio of phagocytic macrophages of the rat treated with 0.1 μM of the test compound was calculated in the same manner as Experimental Example 4. The potentiating actions on phagocytosis of the compounds of Examples 2, 8 and 10 were 146%, 167% and 148% respectively.

benzodiazepine receptors = assay: Displacement of tritiated diazepam, benzodiazepine receptor binding (synaptosome fraction of cerebral cortex); design: species or system rat (male Wistar); settings: displacement of 2 nM tritiated diazepam, rat cortex synaptosomes, pH 7.4, 0°C, 20 min; read-out: Affinity to BZP Receptors, Ki
Experimental: The experiment for specific affinity to benzodiazepine receptors was carried out in accordance with the method described in Life Science, vol. 20, 2101 (1977).
The crude cyhaptosome fraction was isolated from the cerebral cortex of male Wistar rats aged 9-10 weeks, and was suspended in 50 mM Tris-hydrochloric acid buffer solution (pH 7.4) containing 120 mM sodium chloride and 5 mM potassium chloride. These suspensions were used for the experiment.
The test compounds in several different concentrations and tritiated diazepam (in final concentration of 2 nM) were added to the synaptosome suspensions, and the mixtures were incubated at 0° C. for 20 minutes. These suspensions were filtered with Whatman GF/B glassfiber filters. After the filters were washed with the above-mentioned buffer solution, the radioactivity left on the filters was measured with the use of a liquid scintillation counter.
Specific binding was determined by subtracting binding in the presence of 10^-6 M unlabeled diazepam from total binding.
According to the foregoing experimental method, the binding force to benzodiazepine receptors of the compound of the present invention is evaluated from its displacement ability for tritiated diazepam at its binding site, which is represented by Ki value (nM).

[1] = system: amnesia induced by electroconvulsive shock; assay: Action on experimental amnesia (electroconvulsive shock, step-through passive avoidance); format: in vivo, mouse (male ddY); settings: Mus musculus, ip; i.p. immediately after ECS; latency 3 h after acquisition trial; read-out: Anti-amnesia Action, MED
Experimental: The experiment was carried out in accordance with the method described by Sara in Psychopharmacologia, vol. 36, 59 (1974). Male ddY mice weighing 23-26 g, 20 animals per group, were used, and a step-through passive avoidance reflex practicing box consisting of illuminated chamber and dark chamber was used as the experimental apparatus. As the acquisition trial of passive avoidance reflex, the animals were placed in the illuminated chamber and then allowed to enter the dark one. As soon as the animals entered the dark chamber, footshock was applied to the mouse. Experimental amnesia was caused by applying electroconvulsive shock [ECS]soon after the acquisition trial. As the experimental trial, the animals were placed in the illuminated chamber three hours after the acquisition trial, and the time which the animals took to enter the dark chamber (latency) was measured until 600 seconds. The test compounds were administered intraperitoneally (i.p.) immediately after the application of ECS. For the evaluation of the effects, antagonistic actions against the reduction in latency, caused by the application of ESC were examined.

E. coli 0-111 strain = assay: Infection-protective action (E. coli infection in cyclophosphamide-treated mice); format: in vivo, mouse (male ICR); settings: 3 mg/kg orally for 3 days; 7 days after E. coli inoculation; cyclophosphamide 200 mg/kg i.p.
Experimental: Cyclophosphamide was intraperitoneally administered to male ICR mice (weighing 23-27 g, aged 5 weeks) at the dosage of 200 mg/kg. Four days later, […] of E. coli 0-111 strain was subcutaneously inoculated into the mice (Controls). The test compounds (3 mg/kg) were orally administered to the mice for 3 days from the following day of the administration of cyclophosphamide. The survival rate of the treated mice relative to controls 7 days after the inoculation of E. coli was compared.

leukocytes = assay: Action on leukocyte-phagocytosis; format: cell-based, mouse (ICR); settings: Mus musculus, 20 min, 37° C., read-out: potentiating action on leukocyte phagocytosis, ratio of phagocytic leukocytes relative to controls
Experimental: The experiment was performed in accordance with the method by Stossel et al. [Journal of Clinical Investigation, vol. 51, 615 (1972)].
as §1

| Compound | activity at 0.1 µM (peritoneal macrophages) | Ki (benzodiazepine receptors) | minimal effective dose [1] | effect on survival rate relative to controls (E. coli 0-111 strain) | activity at 0.1 µM (leukocytes) |
| --- | --- | --- | --- | --- | --- |
| Cc1ccc(N2N=C3c4cc(Br)sc4CCC3CC2=O)cc1 (stereo not drawn) [Example 10, 2-bromo-8-(4-methylphenyl)-4,5,5a,6,7,8-hexahydrothieno[2,3-h]cinnolin-7-one] | 148% | 0.007 µM | – | – | – |
| COc1ccc(N2N=C3c4cc(C)sc4CCC3CC2=O)cc1 (stereo not drawn) [Example 14, 2-Methyl-8-(4-methoxyphenyl)-4,5,5a,6,7,8-hexahydrothieno[2,3-h]cinnolin-7-one] | – | 0.0051 µM | 0.25 mg/kg | – | – |
| O=C1CC2CCc3sc(Br)cc3C2=NN1c1ccc(Cl)cc1 (stereo not drawn) [Example 6, 2-bromo-8-(4-chlorophenyl)-4,5,5a,6,7,8-hexahydrothieno[2,3-h]cinnolin-7-one] | – | 0.012 µM | – | – | – |
| Cc1ccc(N2N=C3c4ccsc4CCC3CC2=O)cc1 (stereo not drawn) [Example 8, 8-(4-methylphenyl)-4,5,5a,6,7,8-hexahydrothieno[2,3-h]cinnolin-7-one] | 167% | – | – | significant increasing effects on survival rate | – |
| COc1ccc(N2N=C3c4ccsc4CCC3CC2=O)cc1 (stereo not drawn) [Example 9, 8-(4-methoxyphenyl)4,5,5a,6,7,8-hexahydrothieno[2,3-h]cinnolin-7-one] | – | 0.012 µM | 0.5 mg/kg | – | 158% |
| O=C1CC2CCc3sccc3C2=NN1c1ccc(Cl)cc1 (stereo not drawn) [Example 2, 8-(4-chlorophenyl)4,5,5a,6,7,8-hexahydrothieno[2,3-h]cinnolin-7-one] | 146% | – | – | significant increasing effects on survival rate | – |
| COc1ccc(N2N=C3c4cc(Br)sc4CCC3CC2=O)cc1 (stereo not drawn) [Example 11, 2-bromo-8-(4-methoxyphenyl)-4,5,5a,6,7,8-hehahydrothieno[2,3-h]cinnolin-7-one] | – | 0.0045 µM | – | significant increasing effects on survival rate | – |
| O=C1CC2CCc3sc(Br)cc3C2=NN1c1ccccc1 (stereo not drawn) [Example 4, 2-bromo-8-phenyl-4,5,5a,6,7,8-hexahydrothieno[2,3-h]-cinnolin-7-one] | – | 0.03 µM | 0.5 mg/kg | – | – |
| O=C1CC2CCc3sccc3C2=NN1c1ccccn1 (stereo not drawn) [Example 3, 8-(2-pyridyl)4,5,5a,6,7,8-hexahydrothieno[2,3-h]cinnolin-7-one] | – | 0.28 µM | 0.1 mg/kg | – | – |
| O=C1CC2CCc3sc(Br)cc3C2=NN1c1ccccn1 (stereo not drawn) [Example 7, 2-bromo-8-(2-pyridyl)-4,5,5a,6,7,8-hexahydrothieno[2,3-h]cinnolin-7-one] | – | 0.06 µM | < 0.5 mg/kg | – | – |
| Cc1cc2c(s1)CCC1CC(=O)N(c3ccccc3)N=C21 (stereo not drawn) [Example 5, 2-methyl-8-phenyl-4,5,5a,6,7,8-hexahydrothieno[2,3-h]cinnolin-7-one] | – | 0.018 µM | 0.25 mg/kg | – | – |
| Cc1ccc(N2N=C3c4cc(C)sc4CCC3CC2=O)cc1 (stereo not drawn) [Example 24, 2-Methyl-8-(4-methylphenyl)-4,5,5a,6,7,8-hexahydrothieno[2,3-h]cinnolin-7-one] | – | 0.01 µM | – | – | – |
| O=C1CC2CCc3sccc3C2=NN1c1ccccc1 (stereo not drawn) [Example 1, 8-phenyl-4,5,5a,6,7,8-hexahydrothieno[2,3h]cinnolin-7-one] | – | – | – | – | 160% |

Reference: patent US4965264A, “Thienocinnoline compounds and their pharmaceutical use” (Yoshitomi Pharmaceutical Industries, Ltd., priority 1987, dated 1990)
